Assay results from US20260262643A1, “HERBICIDAL BENZOXAZINES” (FMC CORPORATION, priority 2022, published 2026).

Columns and labels:
[1] = tested on: barnyardgrass; assay: Test C preemergence; type: in vivo, Echinochloa crusgalli; conditions: 0 to 100 scale (0 no effect, 100 complete control); for Barnyardgrass plant response rating: preemergence
Procedure, shortened: (§1)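 Visual injury score, 0–100 (100 = complete control), taken 10 days after treatment relative to untreated controls. Pre: directed spray onto soil over sown seeds. Post: foliar spray at one- to two-leaf stage, 2–10 cm. Solvent/surfactant formulation; loam–sand soil; greenhouse.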

[2] = tested on: blackgrass; assay: Test C preemergence; type: in vivo, Alopecurus myosuroides; conditions: 0 to 100 scale (0 no effect, 100 complete control); for Blackgrass plant response rating: preemergence
Procedure, shortened: as §1

[3] = tested on: corn; assay: Test C preemergence; type: in vivo, Zea mays; conditions: 0 to 100 scale (0 no effect, 100 complete control); for Corn plant response rating: preemergence
Procedure, shortened: as §1

[4] = tested on: green foxtail; assay: Test C preemergence; type: in vivo, Setaria viridis; conditions: 0 to 100 scale (0 no effect, 100 complete control); for Foxtail, Green plant response rating: preemergence
Procedure, shortened: as §1

[5] = tested on: kochia; assay: Test C preemergence; type: in vivo, Bassia scoparia; conditions: 0 to 100 scale (0 no effect, 100 complete control); for Kochia plant response rating: preemergence
Procedure, shortened: as §1

[6] = tested on: oat, wild; assay: Test C preemergence; type: in vivo, Avena fatua; conditions: 0 to 100 scale (0 no effect, 100 complete control); for Oat, Wild plant response rating: preemergence
Procedure, shortened: as §1

[7] = tested on: pigweed, palmer; assay: Test C preemergence; type: in vivo, Amaranthus palmeri; conditions: 0 to 100 scale (0 no effect, 100 complete control); for Pigweed, Palmer plant response rating: preemergence
Procedure, shortened: as §1

[8] = tested on: ragweed; assay: Test C preemergence; type: in vivo, Ambrosia artemisiifolia; conditions: 0 to 100 scale (0 no effect, 100 complete control); for Ragweed plant response rating: preemergence
Procedure, shortened: as §1

[9] = tested on: ryegrass, Italian; assay: Test C preemergence; type: in vivo, Lolium multiflorum; conditions: 0 to 100 scale (0 no effect, 100 complete control); for Ryegrass, Italian plant response rating: preemergence
Procedure, shortened: as §1

[10] = tested on: soybean; assay: Test C preemergence; type: in vivo, Glycine max; conditions: 0 to 100 scale (0 no effect, 100 complete control); for Soybean plant response rating: preemergence
Procedure, shortened: as §1

[11] = tested on: wheat; assay: Test C preemergence; type: in vivo, Triticum aestivum; conditions: 0 to 100 scale (0 no effect, 100 complete control); for Wheat plant response rating: preemergence
Procedure, shortened: as §1

[12] = tested on: barnyardgrass; assay: Test C postemergence; type: in vivo, Echinochloa crusgalli; conditions: 10 days
Procedure, shortened: as §1

[13] = tested on: blackgrass; assay: Test C postemergence; type: in vivo, Alopecurus myosuroides; conditions: 10 days
Procedure, shortened: as §1

[14] = tested on: corn; assay: Test C postemergence; type: in vivo, Zea mays; conditions: 10 days
Procedure, shortened: as §1

[15] = tested on: green foxtail; assay: Test C postemergence; type: in vivo, Setaria viridis; conditions: 10 days
Procedure, shortened: as §1

[16] = tested on: kochia; assay: Test C postemergence; type: in vivo, Bassia scoparia; conditions: 10 days
Procedure, shortened: as §1

[17] = tested on: oat, wild; assay: Test C postemergence; type: in vivo, Avena fatua; conditions: 10 days
Procedure, shortened: as §1

[18] = tested on: pigweed, palmer; assay: Test C postemergence; type: in vivo, Amaranthus palmeri; conditions: 10 days
Procedure, shortened: as §1

[19] = tested on: ragweed; assay: Test C postemergence; type: in vivo, Ambrosia artemisiifolia; conditions: 10 days
Procedure, shortened: as §1

[20] = tested on: ryegrass, Italian; assay: Test C postemergence; type: in vivo, Lolium multiflorum; conditions: 10 days
Procedure, shortened: as §1

[21] = tested on: soybean; assay: Test C postemergence; type: in vivo, Glycine max; conditions: 10 days
Procedure, shortened: as §1

[22] = tested on: wheat; assay: Test C postemergence; type: in vivo, Triticum aestivum; conditions: 10 days
Procedure, shortened: as §1

[23] = tested on: galium; assay: Test C postemergence; type: in vivo, Galium aparine; conditions: 10 days
Procedure, shortened: as §1

[24] = tested on: horseweed; assay: Test C postemergence; type: in vivo, Erigeron canadensis; conditions: 10 days
Procedure, shortened: as §1

[25] = tested on: barnyardgrass; assay: Test D flooded paddy test; type: in vivo, Echinochloa crus-galli; conditions: 250 g ai/ha, applied to paddy water, visual rating after 13 to 14 days, scale 0 to 100 (0 no effect, 100 complete control)
Procedure, shortened: (§2)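 2-leaf plants; flood 3 cm above soil; compound dosed into paddy water; greenhouse 13–14 d; visual rating vs controls, 0–100 (100 = complete control); dash = not tested.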

[26] = tested on: ducksalad; assay: Test D flooded paddy test; type: in vivo, Heteranthera limosa; conditions: 250 g ai/ha, applied to paddy water, visual rating after 13 to 14 days, scale 0 to 100 (0 no effect, 100 complete control)
Procedure, shortened: as §2

[27] = tested on: rice; assay: Test D flooded paddy test; type: in vivo, Oryza sativa; conditions: 250 g ai/ha, applied to paddy water, visual rating after 13 to 14 days, scale 0 to 100 (0 no effect, 100 complete control)
Procedure, shortened: as §2

[28] = tested on: sedge, umbrella; assay: Test D flooded paddy test; type: in vivo, Cyperus difformis; conditions: 250 g ai/ha, applied to paddy water, visual rating after 13 to 14 days, scale 0 to 100 (0 no effect, 100 complete control)
Procedure, shortened: as §2

[29] = Preemergence, 500 g ai/ha, visual rating after 10 days
[30] = 125 g ai/ha, postemergence, 0 to 100 scale, 0 no effect, 100 complete control
[31] = Postemergence, 500 g ai/ha, visual 0 to 100 scale (0 no effect, 100 complete control)
[32] = 500 g ai/ha, postemergence, 0 to 100 scale (0 no effect, 100 complete control)
[33] = Postemergence, 125 g ai/ha, 0 to 100 scale (0 no effect, 100 complete control)

Compound: CC(C)c1ncn(-c2cc3c(c(C(=O)N4C[C@H](C)Oc5c(Cl)cccc54)c2)OCO3)n1 [Compound 258, [(2S)-8-chloro-2-methyl-2,3-dihydro-1,4-benzoxazin-4-yl]-[6-(3-isopropyl-1,2,4-triazol-1-yl)-1,3-benzodioxol-4-yl]methanone]
- Plant response rating, Barnyardgrass [1, 29]: 100
- Barnyardgrass plant response rating ([1]; Test C, 125 g ai/ha): 80
- Plant response rating, Blackgrass [2, 29]: 60
- Blackgrass plant response rating ([2]; Test C, 125 g ai/ha): 40
- Plant response rating, Corn [3, 29]: 20
- Corn plant response rating ([3]; Test C, 125 g ai/ha): 10
- Plant response rating, Foxtail, Green [4, 29]: 100
- Foxtail, Green plant response rating ([4]; Test C, 125 g ai/ha): 100
- Plant response rating, Kochia [5, 29]: 100
- Kochia plant response rating ([5]; Test C, 125 g ai/ha): 90
- Plant response rating, Oat, Wild [6, 29]: 90
- Oat, Wild plant response rating ([6]; Test C, 125 g ai/ha): 40
- Plant response rating, Pigweed, Palmer [7, 29]: 100
- Pigweed, Palmer plant response rating ([7]; Test C, 125 g ai/ha): 100
- Plant response rating, Ragweed [8, 29]: 50
- Ragweed plant response rating ([8]; Test C, 125 g ai/ha): 40
- Plant response rating, Ryegrass, Italian [9, 29]: 100
- Ryegrass, Italian plant response rating ([9]; Test C, 125 g ai/ha): 90
- Plant response rating, Soybean [10, 29]: 100
- Soybean plant response rating ([10]; Test C, 125 g ai/ha): 50
- Plant response rating, Wheat [11, 29]: 60
- Wheat plant response rating ([11]; Test C, 125 g ai/ha): 50
- Plant response rating, Barnyardgrass [12, 30]: 40
- Plant response rating, Barnyardgrass [12, 31]: 90
- pest or weed control at 125 g/ha ([13]; Alopecurus myosuroides, post-emergence, 240 h, 125 g ai/ha, postemergence, 0 to 100 scale (0 no effect, 100 complete control), read-out: Plant response rating, Blackgrass): 50%
- pest or weed control at 500 g/ha ([13]; Alopecurus myosuroides, post-emergence, 240 h, Postemergence, 500 g ai/ha, visual 0 to 100 scale (0 no effect, 100 complete control), read-out: Plant response rating, Blackgrass): 100%
- Corn plant response rating (crop injury, 0 = no effect, 100 = complete kill) at 125 g/ha ([14]; Zea mays, post-emergence, 240 h, 125 g ai/ha, postemergence, 0 to 100 scale (0 no effect, 100 complete control)): 70%
- Corn plant response rating (crop injury, 0 = no effect, 100 = complete kill) at 500 g/ha ([14]; Zea mays, post-emergence, 240 h, Postemergence, 500 g ai/ha, visual 0 to 100 scale (0 no effect, 100 complete control)): 80%
- Plant response rating, Foxtail, Green [15, 30]: 50
- Plant response rating, Foxtail, Green [15, 31]: 90
- Plant response rating, Kochia [16, 30]: 70
- Plant response rating, Kochia [16, 31]: 100
- Plant response rating, Oat, Wild [17, 30]: 30
- Plant response rating, Oat, Wild [17, 31]: 90
- Plant response rating, Pigweed, Palmer [18, 30]: 100
- Plant response rating, Pigweed, Palmer [18, 31]: 100
- Plant response rating, Ragweed [19, 30]: 70
- Plant response rating, Ragweed [19, 31]: 90
- Plant response rating, Ryegrass, Italian [20, 30]: 50
- Plant response rating, Ryegrass, Italian [20, 31]: 80
- Plant response rating, Soybean [21, 30]: 100
- Plant response rating, Soybean [21, 31]: 100
- Plant response rating, Wheat [22, 30]: 20
- Plant response rating, Wheat [22, 31]: 50
- Plant response rating, Galium [23, 30]: 100
- Plant response rating, Galium [23, 31]: 100
- Plant response rating, Horseweed [24, 30]: 70
- Plant response rating, Horseweed [24, 31]: 90
- Plant response rating, Barnyardgrass (Flood) [25]: 35
- Plant response rating, Ducksalad (Flood) [26]: 98
- Plant response rating, Rice (Flood) [27]: 10
- Plant response rating, Sedge, Umbrella (Flood) [28]: 98

Compound: COC(=O)c1ncn(-c2ccc(C)c(C(=O)N3C[C@H](C)Oc4c(Cl)cccc43)c2)n1 [Compound 315]
- Barnyardgrass plant response rating ([1]; 500 g ai/ha): 90
- Barnyardgrass plant response rating ([1]; Test C, 125 g ai/ha): 0
- Blackgrass plant response rating ([2]; 500 g ai/ha): 50
- Blackgrass plant response rating ([2]; Test C, 125 g ai/ha): 0
- Corn plant response rating ([3]; 500 g ai/ha): 0
- Corn plant response rating ([3]; Test C, 125 g ai/ha): 0
- Foxtail, Green plant response rating ([4]; 500 g ai/ha): 90
- Foxtail, Green plant response rating ([4]; Test C, 125 g ai/ha): 30
- Kochia plant response rating ([5]; 500 g ai/ha): 0
- Kochia plant response rating ([5]; Test C, 125 g ai/ha): 0
- Oat, Wild plant response rating ([6]; 500 g ai/ha): 60
- Oat, Wild plant response rating ([6]; Test C, 125 g ai/ha): 0
- Pigweed, Palmer plant response rating ([7]; 500 g ai/ha): 100
- Pigweed, Palmer plant response rating ([7]; Test C, 125 g ai/ha): 10
- Ragweed plant response rating ([8]; 500 g ai/ha): 30
- Ragweed plant response rating ([8]; Test C, 125 g ai/ha): 0
- Ryegrass, Italian plant response rating ([9]; 500 g ai/ha): 90
- Ryegrass, Italian plant response rating ([9]; Test C, 125 g ai/ha): 40
- Soybean plant response rating ([10]; 500 g ai/ha): 0
- Soybean plant response rating ([10]; Test C, 125 g ai/ha): 0
- Wheat plant response rating ([11]; 500 g ai/ha): 30
- Wheat plant response rating ([11]; Test C, 125 g ai/ha): 0
- Plant response rating, Barnyardgrass [12, 32]: 80
- Plant response rating, Barnyardgrass [12, 33]: 60
- Plant response rating, Blackgrass [13, 32]: 90
- Plant response rating, Blackgrass [13, 33]: 70
- Plant response rating, Corn [14, 32]: 40
- Plant response rating, Corn [14, 33]: 30
- Plant response rating, Foxtail, Green [15, 32]: 90
- Plant response rating, Foxtail, Green [15, 33]: 80
- Plant response rating, Kochia [16, 32]: 50
- Plant response rating, Kochia [16, 33]: 40
- Plant response rating, Oat, Wild [17, 32]: 90
- Plant response rating, Oat, Wild [17, 33]: 50
- Plant response rating, Pigweed, Palmer [18, 32]: 100
- Plant response rating, Pigweed, Palmer [18, 33]: 80
- Plant response rating, Ragweed [19, 32]: 70
- Plant response rating, Ragweed [19, 33]: 70
- Plant response rating, Ryegrass, Italian [20, 32]: 80
- Plant response rating, Ryegrass, Italian [20, 33]: 60
- Plant response rating, Soybean [21, 32]: 100
- Plant response rating, Soybean [21, 33]: 70
- Plant response rating, Wheat [22, 32]: 90
- Plant response rating, Wheat [22, 33]: 80
- Plant response rating, Galium [23, 32]: 70
- Plant response rating, Galium [23, 33]: 70
- Plant response rating, Horseweed [24, 32]: 30
- Plant response rating, Horseweed [24, 33]: 0
- Plant response rating, Barnyardgrass (Flood) [25]: 15
- Plant response rating, Ducksalad (Flood) [26]: 85
- Plant response rating, Rice (Flood) [27]: 10
- Plant response rating, Sedge, Umbrella (Flood) [28]: 60
